Test results: patent publication US11827917B1, “Methods for the conversion of fermentable sugars to ethanol” (Colorado State University Research Foundation, priority 2020, dated 2023)
Entries after “also recorded” stand apart in the source; their conditions may differ. Marks after values point to notes of the source that are not given here.

Columns and labels:
Format in all cases: cell-based, Saccharomyces cerevisiae
[1] = tested on: S. cerevisiae JAY 270; experiment: Screening of growth in 24-well plates on YPDA; conditions: for Cell growth score (colony size): YPDA, 30° C., 24 h; for Effect on cell growth in the plate assay (words): tested concentrations, 24-well plates
Procedure: Procedure: An inoculum culture of S. cerevisiae JAY 270 was grown in 100 mL of yeast extract-peptone-dextrose (YPD) medium (10 g/L yeast extract, 20 g/L peptone, 20 g/L glucose) in 200-mL serum bottles overnight in a shaker at 30° C. and 200 rpm. The cells were collected by centrifuging 10 min at 4000×g and 4° C. To wash off the medium residue, the cell pellet was resuspended in 30 mL of sterile 0.8% (w/v) NaCl solution and centrifuged at 4000×g for 10 min. The cell pellet was washed twice. Finally, the cell pellet was resuspended and diluted in 0.8% (w/v) NaCl to achieve cell concentrations of OD600=0.02 and 0.2.
The eight compounds were added in YPDA separately at 0.03%, 0.05%, 0.1%, and 0.2% (w/v). The standard control treatment contained only YPDA medium without addition of these compounds. Since the TrpOH and TyrOH stock solutions were dissolved in DMSO, the controls for those tests were YPDA with the same concentration of DMSO. A 3-mL aliquot of YPDA medium with or without the test compounds were loaded in each well of the 24-well plate.
Ten μL of the prepared S. cerevisiae JAY 270 cell suspension at OD600=0.02 or 0.2 was loaded onto the YPDA medium in each well of the 24-well plates. Then the plates were sealed with Parafilm and incubated at 30° C. for 24 h. There were four biological replicates for each treatment.
Yeast cell growth was evaluated by visual observation of the colony size in the well and scored as 0, +, ++, and +++.

[2] = tested on: S. cerevisiae JAY 270; experiment: Growth test in liquid YNB medium, low/high nitrogen, serum bottles; conditions: 40, 200, 1000 mg/L; low and high nitrogen media
Procedure: A second set of tests was performed in a defined liquid medium, Yeast Nitrogen Base with Glucose (YNB), containing (NH4)2SO4 at either low (1 mM) or high (10 mM) nitrogen content. […] All serum bottles were incubated in a shaker at 30° C. and 150 RPM. Each treatment was performed in biological duplicate. Samples were collected at 0, 5, and 10 hours.

[3] = tested on: S. cerevisiae JAY 270; experiment: Serum-bottle cultivation in YPD: biomass, glycerol, ethanol yields; conditions: YPD, serum bottles
Procedure: Procedure: Cultivations in serum bottles were used to determine the effect of the best-performing screened chemicals on the ethanol yield. S. cerevisiae JAY 270 was pre-cultured in 100 mL of YPD medium in 200-mL serum bottles overnight in a shaker at 30° C. and 200 rpm. The precultured yeast cells were collected and washed twice as described above. The cell pellet was resuspended in about 10 mL of 0.8% (w/v) NaCl and the cell concentration was estimated as OD600. TyrOH, PheOH, and TrpOH were added to 30 mL of YPD medium in 100-mL serum bottles at 0.05% and 0.2% respectively. The same amount of DMSO was added to YPD medium to serve as the control for TrpOH and TyrOH treatments. The bottles were inoculated with the prepared yeast cells to obtain an initial cell concentration of OD600=0.2. The serum bottles were sealed and cultured in a shaker at 30° C. and 200 rpm for 24 h. Each condition had three biological replicates.
Analytical methods: Cell growth was evaluated by monitoring OD600 and cell dry mass concentration. For dry mass measurements, 1.0 mL of culture was transferred to a pre-dried and pre-weighed 2-mL centrifuge tube. The tubes were centrifuged for 10 min at 14000 rpm using a microcentrifuge, and then the cell pellets were dried in an oven for 3 days at 65° C. The cell dry mass was determined by subtracting the initial tube mass from the dried mass of tube with cells. The concentrations of glucose, ethanol, and glycerol were measured via HPLC (Shimadzu LC20A series) outfitted with a refractive index detector and using an Aminex HPX-87H (300×7.8 mm) organic acid column and Cation H+ guard cartridge (Bio Rad Laboratories, Hercules, CA). The column was maintained at 65° C. and the mobile phase was 5 mM sulfuric acid with a flow rate of 0.6 mL/min. Standard compound solutions were used to calibrate the HPLC. Each sample was analyzed three times by HPLC.

## CP(=O)(O)CCC(N)C(=O)O (stereo not drawn) [Glufosinate ammonium, glufosinate ammonium]
[1]; 0.03% (w/v)
  Cell growth score (colony size): +++
[1]; 0.05% (w/v)
  Cell growth score (colony size): +++
[1]; 0.10% (w/v)
  Cell growth score (colony size): +++
[1]; 0.20% (w/v)
  Cell growth score (colony size): +++
[1]
  Effect on cell growth in the plate assay (words): did not inhibit cell growth

## Nc1nc[nH]n1 [3-amino-1,2,4-triazole]
[1]; 0.03% (w/v)
  Cell growth score (colony size): +++
[1]; 0.05% (w/v)
  Cell growth score (colony size): +++
[1]; 0.10% (w/v)
  Cell growth score (colony size): +++
[1]; 0.20% (w/v)
  Cell growth score (colony size): +++
[1]
  Effect on cell growth in the plate assay (words): did not inhibit cell growth

## CC(C)=CCCC(C)=CCCC(C)=CCO [Farnesol, farnesol]
[1]; 0.03% (w/v)
  Cell growth score (colony size): +++
[1]; 0.05% (w/v)
  Cell growth score (colony size): +++
[1]; 0.10% (w/v)
  Cell growth score (colony size): +++
[1]; 0.20% (w/v)
  Cell growth score (colony size): +++
[1]
  Effect on cell growth in the plate assay (words): did not inhibit cell growth

## OB(O)O [Boric acid, reference compound]
[1]; 0.03% (w/v)
  Cell growth score (colony size): +++
[1]; 0.05% (w/v)
  Cell growth score (colony size): +++
[1]; 0.10% (w/v)
  Cell growth score (colony size): ++
[1]; 0.20% (w/v)
  Cell growth score (colony size): +
[1]
  Effect on cell growth in the plate assay (words): inhibited growth; also recorded: reduced the growth
[2]
  Inhibitory effect on yeast cell growth in liquid YNB medium: little or no growth inhibition effects
[3]; 0.05% (w/v)
  Biomass Yield: 0.137 + 0.001 g/g
  Biomass yield % change vs. control: 0%
  EtOH yield: 0.41 ± 0.00 g/g
  EtOH yield % change vs. control: 0%
  Glycerol yield: 0.024 ± 0.001 g/g
  Glycerol yield % change vs. control: 0%
[3]; 0.05%
  Biomass yield vs. reference: 0%
  Ethanol yield: 0.41 ± 0.00 g/g
  Ethanol yield vs. reference: 0%
  Glycerol yield: 0.024 ± 0.001 g/g
  Glycerol yield vs. reference: −6.3%
  OD600: 4.78
[3]; 0.05 and 0.2%
  Effect on ethanol yield: did not affect ethanol yield
[3]; 0.2% (w/v)
  Biomass Yield: 0.116 + 0.001 g/g
  Biomass yield % change vs. control: −15* %
  EtOH yield: 0.41 ± 0.00 g/g
  EtOH yield % change vs. control: 0%
  Glycerol yield: 0.027 ± 0.001 g/g
  Glycerol yield % change vs. control: 6.9%
[3]; 0.2%
  Biomass yield vs. reference: −15.3%
  Ethanol yield: 0.41 ± 0.00 g/g
  Ethanol yield vs. reference: 0%
  Glycerol yield: 0.027 ± 0.000 g/g
  Glycerol yield vs. reference: 6.9%
  OD600: 3.96

## C[C@@H]1C[C@@H]([C@H](O)CC2CC(=O)NC(=O)C2)C(=O)[C@@H](C)C1 [Cycloheximide, cycloheximide, reference compound]
[1]; 0.03% (w/v)
  Cell growth score (colony size): 0
[1]; 0.05% (w/v)
  Cell growth score (colony size): 0
[1]; 0.10% (w/v)
  Cell growth score (colony size): 0
[1]; 0.20% (w/v)
  Cell growth score (colony size): 0
[1]
  Effect on cell growth in the plate assay (words): inhibited all cell growth at all tested concentrations
[1]; listed as cycloheximide
  Effect on cell growth in the plate assay (words): inhibited growth; also recorded: reduced the growth
[3]; 0.1 mg/L
  Biomass yield % change vs. control: −12* %
  Biomass yield vs. reference: −36.1%
  Effect on ethanol yield: slight decrease of ethanol yield
  EtOH yield: 0.42 ± 0.01 g/g
  EtOH yield % change vs. control: −3.5%
  Ethanol yield: 0.42 ± 0.01 g/g
  Ethanol yield vs. reference: 0%
  Glycerol yield % change vs. control: −48* %
  Glycerol yield vs. reference: 0.4%
  OD600: 2.82
[3]; 0.4 mg/L
  OD600: 0.22
